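Where inhibition never reached the appropriate level, the endpoint shown equals the highest concentration tested. Otherwise, values were interpolated linearly from a five-concentration, 48-hour dose response in 96-well plates. TGI marks complete inhibition of growth.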 A value given as a limit tells only on which side of the number the result lay.

The values below come from PubChem BioAssay (NCI).

Assay in all cases: inhibition of tumour cell growth, NCI panel, 48 h
Assay [1] concerns A498 renal.
Assay [2] relates to BT-549 breast.
Assay [3] relates to CAKI-1 renal.
Assay [4] relates to HCT-116 colon.
Assay [5] deals with HCT-15 colon.
Assay [6] concerns HOP-62 NSCLC.
The test system of assay [7] is HS 578T breast.
For assay [8], the system named is M14 melanoma.
The subject of assay [9] is MDA-N.
The test system of assay [10] is MOLT-4 leukemia.
In assay [11] the test system is NCI-H226 lung.
For assay [12], the system named is RXF 393 renal.
In assay [13] the test system is SF-539 CNS.
Assay [14] relates to SK-MEL-2 melanoma.
In assay [15] the test system is SK-MEL-28 melanoma.
The subject of assay [16] is SK-MEL-5 melanoma.
In assay [17] the test system is SNB-75 CNS.
Assay [18] relates to TK-10 renal.
Assay [19] deals with UACC-62 melanoma.
Assay [20] has as its system UO-31 renal.

Consider `CN1CCc2c(sc3ncn(C)c(=N)c23)C1`, for which the TGI in [1], in assay [2], in assay [3], in assay [4], in assay [5] and in [6] was above 100 µM throughout. Further, the TGI in assay [7], in assay [8], in assay [9], in [10], in assay [11] and in [12] was above 100 µM each time. For the same compound, the TGI in assay [13], in assay [14], in assay [15], in assay [16], in assay [17] and in assay [18] was above 100 µM each time. In assay [19], this compound came in with a TGI above 100 µM.
For `COc1ccc2[nH]c3c(c2c1)CC(=S)N1CCCC(CC3=O)C1` (stereo not drawn), the TGI in assay [1], in [2], in assay [3], in [4], in assay [5] and in assay [6] was above 100 µM throughout. Besides, the TGI in assay [7] was above 100 µM; in assay [8], above 100 µM; in [9], above 100 µM; in assay [11], above 100 µM; in assay [12] it was 81 µM; in assay [14], 81.2 µM. Further, the TGI in assay [15], in assay [16], in assay [17], in [18], in [19] and in assay [20] was above 100 µM throughout.
For the compound `Cc1nc2ccc(NC(=S)Nc3ccccc3)cc2c(=O)n1-c1ccccc1`, the TGI in assay [1], in assay [2], in assay [3], in [4], in [5] and in [6] was above 100 µM each time. Moreover, the TGI in assay [7], in assay [9], in [10], in assay [11], in assay [12] and in [14] was above 100 µM in each case. For the same compound, the TGI in assay [15], in [16], in [17], in assay [18], in assay [19] and in assay [20] was above 100 µM throughout.
With `CCOC(=O)c1nc2ccc(C(F)(F)F)cc2[nH]c1=O`, the TGI in [1], in assay [2], in assay [3], in assay [4], in assay [5] and in [6] was above 100 µM throughout. For the same compound, the TGI in assay [7], in [8], in [9], in assay [10], in assay [11] and in assay [12] was above 100 µM each time. Further, the TGI in assay [13], in [14], in assay [15], in [16], in [18] and in [19] was above 100 µM throughout. The compound also showed a TGI in [20] above 100 µM.
Turning to `C=C(C(=O)O)[C@@H]1C[C@@H](OC(C)=O)[C@]2(C)CC/C=C(\C)CCC[C@H](C)[C@H](O)[C@@H]1O2`, the TGI in assay [1], in assay [2], in assay [3], in [4], in assay [5] and in assay [7] was above 100 µM in each case. The TGI in [8] is above 100 µM; in [9] it was 64.2 µM; in [10], 72.1 µM; in [11], above 100 µM; in assay [12] it was 65.9 µM; in assay [13], 35.7 µM. Also, the TGI in [14], in [15], in assay [16], in assay [17], in assay [18] and in assay [19] was above 100 µM each time.
Regarding `COC(=O)CC1C=CC(C)(OC)OO1` (stereo not drawn), the TGI in assay [1], in assay [2], in [3], in assay [4], in assay [5] and in assay [6] was above 100 µM in each case. Moreover, the TGI in assay [7], in [8], in assay [9], in assay [11], in [12] and in assay [13] was above 100 µM throughout. For the same compound, the TGI in assay [14], in assay [15], in [16], in assay [17], in [18] and in assay [19] was above 100 µM throughout. In addition, the TGI in [20] is above 100 µM.
Take `O=C(Oc1ccccc1)N1c2ccccc2[C@@]23O[C@]24CCC[C@H]3C#C/C=C\C#C[C@H]14`: the TGI came out at 27.6 µM in [1]; 25.5 µM in assay [2]; 25.7 µM in assay [3]; 24.2 µM in assay [4]; 25.9 µM in assay [5]; 25.6 µM in assay [6]. The TGI in assay [7] was 47.1 µM; in [8] it was 30.6 µM; in assay [9], 26.9 µM; in assay [10], above 100 µM; in [11], 38.1 µM; in assay [12] it was 21.8 µM. Also, the TGI in [13] was 45.8 µM; in assay [14] it was 25.5 µM; in [15], 27 µM; in assay [17], 23.3 µM; in assay [18], 47.8 µM; in assay [19], 23.6 µM. In assay [20], the TGI was found to be 26.5 µM.
`S=C1SSC2N=CC=CC12` (stereo not drawn): the TGI was above 100 µM in assay [1]; above 100 µM in [2]; 34.3 µM in [3]; above 100 µM in assay [4]; above 100 µM in assay [5]; above 100 µM in [7]. Further, the TGI in assay [8], in assay [9], in [10], in assay [11], in assay [12] and in [13] was above 100 µM in each case. The TGI in assay [14], in [15], in assay [16], in [17], in [18] and in [19] was above 100 µM throughout. For the same compound, in assay [20], the TGI was above 100 µM.
`CCCCSC1=N/C(=C\c2ccco2)C(Cl)=N1`: the TGI in [1], in assay [2], in [3], in assay [4], in [5] and in [6] was above 100 µM each time. In addition, the TGI in assay [7], in assay [8], in assay [9], in [10], in assay [11] and in assay [12] was above 100 µM each time. Besides, the TGI in [14], in [15], in assay [16], in [17], in [18] and in [19] was above 100 µM throughout. In [20], the TGI was above 100 µM.
Consider `COc1ccc(C2OC(N)=C(C#N)C3=C2CCCC3C)cc1OC` (stereo not drawn), for which the TGI in assay [1], in [2], in assay [3], in [4], in assay [5] and in assay [7] was above 100 µM each time. For the same compound, the TGI in assay [8], in assay [9], in [10], in assay [11], in assay [12] and in assay [13] was above 100 µM throughout. Besides, the TGI in assay [14], in assay [15], in assay [16], in assay [17], in [18] and in assay [19] was above 100 µM throughout. The same compound displayed a TGI in assay [20] above 100 µM.
`COC(=O)c1c(C#N)[nH]c(-c2ccsc2)c1C(=O)OC`: the TGI in assay [1], in assay [2], in [3], in assay [4], in assay [6] and in assay [7] was above 100 µM in each case. Moreover, the TGI in assay [8], in assay [9], in assay [10], in [11], in assay [12] and in assay [14] was above 100 µM in each case. Also, the TGI in assay [15], in assay [16], in [17], in assay [18], in assay [19] and in [20] was above 100 µM each time.
Take `CCOP(=O)(COCCn1ncc(=O)[nH]c1=O)OCC`: the TGI in assay [1], in assay [2], in [3], in assay [5], in [6] and in [7] was above 100 µM in each case. In addition, the TGI in assay [8], in assay [9], in [10], in assay [11], in [12] and in assay [13] was above 100 µM each time. Moreover, the TGI in assay [14], in assay [15], in assay [16], in [17], in assay [18] and in assay [20] was above 100 µM each time.
For `CCOC(=O)/C=C/[C@H](O[Si](CC)(CC)CC)C(C)(C)C`, the TGI in assay [1], in assay [2], in assay [3], in [4], in assay [5] and in [6] was above 100 µM each time. For the same compound, the TGI in [7], in [9], in assay [10], in [11], in assay [12] and in assay [13] was above 100 µM throughout. Besides, the TGI was 80.6 µM in assay [14]; above 100 µM in [16]; above 100 µM in assay [17]; above 100 µM in assay [18]; above 100 µM in assay [19]; above 100 µM in assay [20].
Consider `CC(=O)N(CCc1ccccc1)C(C#N)c1ccccc1` (stereo not drawn), for which the TGI in assay [1], in assay [2], in assay [3], in [4], in assay [5] and in [6] was above 100 µM each time. Besides, the TGI in [7], in [8], in [9], in assay [10], in assay [11] and in assay [12] was above 100 µM throughout. In addition, the TGI in assay [13], in [14], in [16], in assay [17], in assay [18] and in assay [19] was above 100 µM throughout. In addition, the TGI in [20] was above 100 µM.
As to `O=C(N[C@@H](c1ccccc1)[C@@H](O)C(=O)OCc1ccc([N+](=O)[O-])cc1)c1ccccc1`, the TGI in assay [1], in assay [2], in assay [3], in assay [4], in [5] and in [6] was above 100 µM in each case. The TGI is above 100 µM in [7]; above 100 µM in assay [9]; 76 µM in assay [10]; above 100 µM in assay [11]; above 100 µM in assay [12]; above 100 µM in assay [13]. Besides, the TGI in [14], in assay [16], in assay [17], in assay [18], in assay [19] and in [20] was above 100 µM in each case.
